Test results taken from patent US20250188082A1, “Use of Hypoxanthine Compound In Preparation of Drug For Treating Pulmonary Fibrosis” (Sichuan Yiasuo Pharmaceutical Technology Co., Ltd., priority 2022, published 2025).
Where two headings read alike, the source gives them in different places.

Experiments:
Format in all cases: in vivo, C57BL/6 mice
[1] = test system: influenza B virus-induced pulmonary fibrosis model (influenza B (H7N9) virus); settings: 120 mg/kg/d intragastric, 14 days; for Ashcroft scores: influenza B virus + bleomycin, lung tissue HE; for IL-1β / NF-κB / TNF-α / IL-6: serum, from two weeks after model; for IL-1β / NF-κB / TNF-α: influenza B (H7N9) + bleomycin; for IL-6: influenza B + bleomycin
[2] = test system: coronavirus-induced pulmonary fibrosis model (HcoV-OC43); experiment: Coronavirus-induced pulmonary fibrosis model; settings: 120 mg/kg/d intragastric, 14 days; for Ashcroft scores: coronavirus HcoV-OC43 + bleomycin, lung tissue HE; for IL-1β / IL-6 / NF-κB / TNF-α: serum, HcoV-OC43 + bleomycin, from two weeks after model
From the text: Experimental method: an in-vivo coronavirus-induced pulmonary fibrosis model mice was established: C57BL/6 mice (with weights being 22-25 g) were randomly and evenly divided into a plurality of groups, including blank control group, model group, Nintedanib positive control group, hypoxanthine analogue A group, hypoxanthine analogue B group, hypoxanthine analogue C group, compound 1 group, compound 2 group . . . compound 12 group, with 9 mice in each group. On Day 1, the mice in the blank control group were instilled with normal saline nasally, and the mice in other groups were all infected with HcoV-OC43 coronavirus strains (30 μL) through nasal instillation. On Day 2, the mice received 5 mg/kg bleomycin through tracheas to induce their pulmonary fibrosis. After the model was established for two weeks, the mice in each group were intragastrically administrated for intervention for consecutive 14 days; the mice in blank control group and model group intragastrically received the same dosage of the normal saline as those in drug groups; the mice in Nintedanib positive control group received Nintedanib (120 mg/kg); the mice in hypoxanthine analogue A group, hypoxanthine analogue B group and hypoxanthine analogue C group respectively received hypoxanthine analogue A (120 mg/kg/d), hypoxanthine analogue B (120 mg/kg/d) and hypoxanthine analogue C (120 mg/kg/d); and the mice in compound 1 group, compound 2 group . . . compound 12 group respectively received compound 1 (120 mg/kg/d), compound 2 (120 mg/kg/d) . . . compound 12 (120 mg/kg/d) prepared in example 1. After administration for consecutive 14 days, the mice were observed every day, and their weights and death conditions were recorded. After administration, blood was taken from eyeballs for immediately detecting the expression levels of NF-κB, TNF-α, IL-1 and IL-6 in serum, and lung tissues were taken for HE detection and Ashcroft scoring.

[3] = test system: mycoplasma-induced pulmonary fibrosis model (MPFH strain); experiment: Mycoplasma-induced pulmonary fibrosis model; settings: 120 mg/kg/d intragastric, 14 days; for Leucocyte / Lymphocyte / Neutrophil: MPFH mycoplasma + bleomycin, once a day, from two weeks after model; for Ashcroft scores: mycoplasma + bleomycin, lung tissue HE
From the text: Experimental method: an in-vivo mycoplasma-induced pulmonary fibrosis model was established: C57BL/6 mice (with weights being 22-25 g) were randomly and evenly divided into a plurality of groups, including blank control group, model group, Nintedanib positive control group, hypoxanthine analogue A group, hypoxanthine analogue B group, hypoxanthine analogue C group, compound 1 group, compound 2 group . . . compound 12 group, with 9 mice in each group. Before a model was established, the mice were anesthetized with diethyl ether. In addition to that the mice in blank control group with instilled with 100 μL of normal saline nasally, the mice in other groups with slowly instilled with an equal volume of a MPFH strain solution (containing 1×10^7 mL^−1 MPFH strain) to the nasal cavity, for consecutive 3 days, and inhaled the MPFH strain solution into bronchi. After instillation with mycoplasmas through tracheas, the mice received 5 mg/kg bleomycin through tracheas to induce their pulmonary fibrosis. After the model was established for two weeks, the mice in each group were intragastrically administrated for intervention for consecutive 14 days; the mice in blank control group and model group intragastrically received an equal dosage of normal saline as those in drug groups; the mice in Nintedanib positive control group received Nintedanib (120 mg/kg); the mice in hypoxanthine analogue A group, hypoxanthine analogue B group and hypoxanthine analogue C group respectively received hypoxanthine analogue A (120 mg/kg/d), hypoxanthine analogue B (120 mg/kg/d) and hypoxanthine analogue C (120 mg/kg/d); and the mice in compound 1 group, compound 2 group . . . compound 12 group respectively received compound 1 (120 mg/kg/d), compound 2 (120 mg/kg/d) . . . compound 12 (120 mg/kg/d) prepared in example 1. The mice were administrated once a day to be treated for consecutive 14 days. The mice were observed every day, and their weights and death conditions were recorded. On the last day of administration, the mice were sacrificed; and blood was taken from eyeballs and kept at −80° C. for detecting blood routine indexes. Meanwhile, lungs were lavaged with normal saline and separated to collect lavage fluids for detecting counts and classes of leucocytes; and lung tissues were taken for HE straining and Ashcroft scoring on the extent of pulmonary fibrosis.

Compound | Ashcroft scores [1] | IL-1β [1] | NF-κB [1] | TNF-α [1] | IL-6 [1] | Ashcroft scores [2] | IL-1β [2] | IL-6 [2] | NF-κB [2] | TNF-α [2] | Leucocyte [3] | Lymphocyte [3] | Neutrophil [3] | Ashcroft scores [3] | other results
COc1ncnc2c1ncn2C(C)C [Compound 7] | 1.20 | 27.9 pg/mL | 33.4 pg/mL | 74.1 pg/mL | 70.3 pg/mL | 1.49 | 33.2 pg/mL | 64.3 pg/mL | 25.6 pg/mL | 55.9 pg/mL | 7.15 10^9/L | 73.29 10^9/L | 21.45 10^9/L | 1.25 | 
CC(C)Oc1ncnc2nc[nH]c12 [Compound 5] | 1.18 | 28.1 pg/mL | 31.4 pg/mL | 76.6 pg/mL | 66.9 pg/mL | 1.31 | 37.1 pg/mL | 64.9 pg/mL | 25.9 pg/mL | 52.6 pg/mL | 6.86 10^9/L | 74.39 10^9/L | 21.91 10^9/L | 1.23 | 
CC(C)Oc1ncnc2c1ncn2C [Hypoxanthine analogue B, reference compound] | 6.21 | 240.6 pg/mL | 627.1 pg/mL | 190.2 pg/mL | 193.1 pg/mL | 6.12 | 560.6 pg/mL | 522.2 pg/mL | 730.1 pg/mL | 454.4 pg/mL | 118.58 10^9/L | 568.05 10^9/L | 233.92 10^9/L | 6.30 | 
CC(C)Oc1ncnc2ncn(C(C)C)c12 [Compound 4] | 1.17 | 27.6 pg/mL | 29.3 pg/mL | 73.9 pg/mL | 66.7 pg/mL | 1.39 | 35.5 pg/mL | 63.9 pg/mL | 26.7 pg/mL | 52.9 pg/mL | 6.79 10^9/L | 73.37 10^9/L | 22.54 10^9/L | 1.05 | 
CC(C)Oc1ncnc2c1ncn2C(C)C [Compound 3] | 0.98 | 25.8 pg/mL | 28.8 pg/mL | 71.8 pg/mL | 64.1 pg/mL | 1.03 | 31.3 pg/mL | 61.7 pg/mL | 23.7 pg/mL | 49.9 pg/mL | 6.83 10^9/L | 72.33 10^9/L | 22.12 10^9/L | 0.96 | 
CC(C)Oc1ncnc2[nH]cnc12 [Compound 1] | 1.19 | 26.3 pg/mL | 30.5 pg/mL | 72.9 pg/mL | 65.1 pg/mL | 1.18 | 31.8 pg/mL | 62.7 pg/mL | 23.9 pg/mL | 51.8 pg/mL | 7.01 10^9/L | 72.56 10^9/L | 21.01 10^9/L | 1.12 | 
O=c1[nH]cnc2[nH]cnc12 [Hypoxanthine analogue A, reference compound] | 6.26 | 239.9 pg/mL | 630.5 pg/mL | 191.3 pg/mL | 194.8 pg/mL | 6.23 | 688.8 pg/mL | 519.4 pg/mL | 719.1 pg/mL | 450.7 pg/mL | 116.79 10^9/L | 567.15 10^9/L | 234.53 10^9/L | 6.64 | 
CCOc1ncnc2c1ncn2C(C)C [Compound 8] | 1.16 | 27.1 pg/mL | 31.9 pg/mL | 73.5 pg/mL | 66.5 pg/mL | 1.29 | 36.6 pg/mL | 66.7 pg/mL | 28.3 pg/mL | 56.1 pg/mL | 7.26 10^9/L | 72.52 10^9/L | 23.62 10^9/L | 1.26 | 
CC(=O)Oc1ncnc2c1ncn2C(C)C [Compound 11] | 1.15 | 26.8 pg/mL | 31.6 pg/mL | 73.5 pg/mL | 65.3 pg/mL | 1.29 | 35.4 pg/mL | 63.3 pg/mL | 25.1 pg/mL | 52.1 pg/mL | 6.70 10^9/L | 73.25 10^9/L | 22.47 10^9/L | 1.50 | 
COc1ncnc2c1ncn2C(C)C [Hypoxanthine analogue C, reference compound] |  |  |  |  |  |  |  |  |  |  |  |  |  |  | Ashcroft scores ([1]; 120 mg/kg/day): 6.15; IL-1β ([1]; 120 mg/kg/day): 241.9 pg/mL; NF-κB ([1]; 120 mg/kg/day): 632.4 pg/mL; TNF-α ([1]; 120 mg/kg/day): 198.9 pg/mL; IL-6 ([1]; 120 mg/kg/day): 194.9 pg/mL; Ashcroft scores ([2]; 120 mg/kg/day): 6.31; IL-1β ([2]; 120 mg/kg/day): 530.1 pg/mL; IL-6 ([2]; 120 mg/kg/day): 530.9 pg/mL; NF-κB ([2]; 120 mg/kg/day): 729.6 pg/mL; TNF-α ([2]; 120 mg/kg/day): 449.1 pg/mL; Leucocyte ([3]; 120 mg/kg/day): 120.98 10^9/L; Lymphocyte ([3]; 120 mg/kg/day): 571.34 10^9/L; Neutrophil ([3]; 120 mg/kg/day): 238.07 10^9/L; Ashcroft scores ([3]; 120 mg/kg/day): 6.41
CC(C)Oc1ncnc2c1N(C(C)C)CN2C(C)C [Compound 10] | 1.25 | 27.8 pg/mL | 31.2 pg/mL | 74.7 pg/mL | 65.5 pg/mL | 1.41 | 37.7 pg/mL | 68.2 pg/mL | 25.3 pg/mL | 56.2 pg/mL | 6.18 10^9/L | 72.54 10^9/L | 21.11 10^9/L | 1.45 | 
